Our source for the IC50 and melting point values is patent US6906078B2, “Method of using (H+/K+) ATPase inhibitors as antiviral agents” (Pharmacia Corporation, priority 1994, dated 2005).

T1 sequence (P50996 whole entry): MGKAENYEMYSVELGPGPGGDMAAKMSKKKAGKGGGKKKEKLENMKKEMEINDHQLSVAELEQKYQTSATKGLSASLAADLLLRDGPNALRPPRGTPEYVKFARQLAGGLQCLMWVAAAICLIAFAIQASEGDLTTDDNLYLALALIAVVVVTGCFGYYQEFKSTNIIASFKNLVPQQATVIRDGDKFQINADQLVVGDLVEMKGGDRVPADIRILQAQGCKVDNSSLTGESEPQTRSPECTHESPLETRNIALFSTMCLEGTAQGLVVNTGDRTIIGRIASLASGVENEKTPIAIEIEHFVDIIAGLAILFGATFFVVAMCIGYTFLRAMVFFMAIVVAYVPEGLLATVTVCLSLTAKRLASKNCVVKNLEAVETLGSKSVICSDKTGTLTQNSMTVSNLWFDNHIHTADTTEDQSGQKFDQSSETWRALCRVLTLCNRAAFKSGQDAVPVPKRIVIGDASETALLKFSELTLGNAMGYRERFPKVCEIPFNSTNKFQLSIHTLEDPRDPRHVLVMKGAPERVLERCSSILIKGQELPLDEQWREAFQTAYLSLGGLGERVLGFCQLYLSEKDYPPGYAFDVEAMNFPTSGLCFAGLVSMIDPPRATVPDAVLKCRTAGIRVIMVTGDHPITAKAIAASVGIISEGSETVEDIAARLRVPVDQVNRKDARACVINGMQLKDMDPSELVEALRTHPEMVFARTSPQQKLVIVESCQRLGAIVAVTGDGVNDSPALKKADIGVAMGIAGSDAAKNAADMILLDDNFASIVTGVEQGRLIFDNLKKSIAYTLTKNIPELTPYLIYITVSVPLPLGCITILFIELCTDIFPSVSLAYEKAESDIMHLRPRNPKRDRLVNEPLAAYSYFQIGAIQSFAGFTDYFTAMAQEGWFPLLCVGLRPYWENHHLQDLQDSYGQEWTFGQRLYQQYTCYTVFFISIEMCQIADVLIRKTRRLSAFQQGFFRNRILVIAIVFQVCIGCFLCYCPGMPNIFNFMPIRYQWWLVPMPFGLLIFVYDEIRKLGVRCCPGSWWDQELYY
T1 sequence (P33704 whole entry partner): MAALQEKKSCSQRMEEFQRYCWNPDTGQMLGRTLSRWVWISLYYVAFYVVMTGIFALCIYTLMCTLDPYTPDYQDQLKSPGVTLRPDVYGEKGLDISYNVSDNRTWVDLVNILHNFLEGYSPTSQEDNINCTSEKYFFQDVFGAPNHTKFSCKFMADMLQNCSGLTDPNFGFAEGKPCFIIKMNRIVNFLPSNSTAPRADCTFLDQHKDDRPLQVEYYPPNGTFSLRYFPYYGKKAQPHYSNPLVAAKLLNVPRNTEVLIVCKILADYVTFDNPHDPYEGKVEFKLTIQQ

The first series addresses T1, (H+/K+)-ATPase (Canis lupus familiaris, UniProt P50996).
T1 construct: The microsomes retained at the 15%-30% sucrose interface, after centrifugation at 250,000×g for sixty minutes, were used as the source of (H^+/K^+)-ATPase; from tissue; host or cells: gastric glandular mucosa of mongrel dogs (microsomal fraction, lyophilized)
Nature of the series: Inhibition of (H+/K+)-ATPase from canine gastric mucosa (inorganic phosphate release). It counts as biochemical. Particulars: canine gastric mucosa microsomes, pH 6.0, 30 min preincubation at 37° C.; read-out: (H+/K+)-ATPase IC50. The procedure: Mongrel dogs weighing 15 to 25 kilograms were fasted for twenty-four hours, with water provided ad libitum. The animals were anesthetized with pentobarbital and the stomachs were removed. Subsequent tissue manipulations and subcellular fractionations were performed at 0° C. to 4° C. After the stomachs were cut open and rinsed with tap water, the antral and cardiac regions were removed and the remaining tissue was rinsed three times in saline. The glandular mucosa was removed mechanically, chopped finely in a medium containing 10 mM Tris hydrochloride (pH 7.4) and 250 mM sucrose, and homogenized. The homogenate was centrifuged at 20,000×g for twenty minutes and the pellet discarded. The supernatant was then centrifuged at 150,000×g for ninety minutes and the supernatant discarded. The pellet was resuspended in the Tris-HCl/sucrose medium by homogenization. Part (2 ml) of the resultant microsomal suspension was layered onto a step gradient consisting of 9 ml of 15% sucrose above 12 ml of 30% sucrose, each sucrose solution being buffered with 10 mM Tris hydrochloride (pH 7.4) containing 0.01% sodium azide. The microsomes retained at the 15%-30% sucrose interface, after centrifugation at 250,000×g for sixty minutes, were used as the source of (H^+/K^+)-ATPase. Microsomal preparations were lyophilized, a process that assured potassium ion permiability, and stored at −10° C. until used.
(H^+/K^+)-ATPase activity for each test compound was determined, in duplicate, by measuring the release of inorganic phosphate, which was assayed according to the method of J. ChandraRajan and L. Klein, Anal. Biochem., 72 , 407 (1976). The (H^+/K^+)-ATPase assay medium consisted of 20 mm mes-Tris (pH 6.0), 5 mM magnesium chloride, 25 mM sucrose, and 4 mM Tris-ATP with or without 20 mM potassium chloride in a total volume of 2 ml. Microsomal suspensions (20 to 60 mcl, containing about 25 mcg protein) were added to the assay medium, without Tris-ATP, and then preincubated with a test compound for thirty minutes at 37° C. The assay was initiated by adding Tris-ATP and the mixture was incubated another thirty minutes at 37° C. A 200-mcl aliquot of the assay mixture was then added to 1.4 ml of a solution consisting of 0.1 M sodium acetate (pH 4.0) and 10% sodium dodecylsulfate, followed by the addition of 200 mcl each of 1% ammonium molybdate and 1% ascorbic acid. At least fifteen minutes later, the optical absorbance at 870 nm (which was proportional to inorganic phosphate concentration up to 100 nmoles per tube, as determined by a standard curve) was obtained. Enzyme activity was linear with incubation time.
(H^+/K^+)-ATPase activity is represented by the difference between the measured activities in the presence of potassium-ion (K^+-stimulated) and in the absence of potassium ion (basal).
On to `Nc1ccc(C[S+]([O-])c2nc3ccccc3[nH]2)cn1` (stereo not shown) [Example 111, 5-[(1H-Benzimidazol-2-ylsulfinyl)methyl]-2-pyridinamine ¼ hydrate], for which the IC50 is 34.8 µM. Same read-out and setting: the value for `Cc1cc2nc([S+]([O-])Cc3cccc(N)n3)[nH]c2cc1C` (stereo not shown) [Example 101, 6-[[(5,6-Dimethyl-1H-benzimidazol-2-yl)-sulfinyl]methyl]-2-pyridinamine] was 0.72 µM. For the molecule `Nc1cccc(C[S+]([O-])c2nc3cc(Cl)ccc3[nH]2)n1` (stereo not shown) [Example 93, 6-[[(5-Chloro-1H-benzimidazol-2-yl)-sulfinyl]methyl]-2-pyridinamine], the IC50 came out at 6.9 µM.

`COc1cc2nc([S+]([O-])Cc3cc(C)ccc3N)[nH]c2cc1OC` (stereo not shown) [Example 75]: the IC50 stood at 120 µM. With `Nc1cccc(C[S+]([O-])c2nc3cc(C(F)(F)F)ccc3[nH]2)n1` (stereo not shown) [Example 95, 6-[[[5-(Trifluoromethyl)-1H-benzimidazol-2-yl]sulfinyl]methyl]-2-pyridinamine], the IC50 was determined as 6.95 µM.

On to `Cc1ccc(C)c(C[S+]([O-])c2nc3cc(C(F)(F)F)ccc3[nH]2)c1N` (stereo not shown) [Example 65], for which the IC50 is 1.5 µM. Regarding `Cc1ccc(C)c(C[S+]([O-])c2nc3ccccc3[nH]2)c1N` (stereo not shown) [Example 55, 2-[(1H-Benzimidazol-2-ylsulfinyl)methyl]-3,6-dimethylbenzenamine monohydrate], the IC50 turned out to be 0.82 µM.

For `Cc1cc(C)c(N)c(C[S+]([O-])c2nc3ccccc3[nH]2)c1` (stereo not shown) [Example 30, 2-[(1H-Benzimidazol-2-ylsulfinyl)methyl]-4,6-dimethylbenzenamine hemihydrate], the IC50 stood at 0.85 µM. On the same count and under the same terms, the value for `CCOc1ccc2[nH]c([S+]([O-])Cc3cccc(N)n3)nc2c1` (stereo not shown) [Example 97, 6-[[(5-Ethoxy-1H-benzimidazol-2-yl)-sulfinyl]methyl]-2-pyridinamine] was 3.1 µM.

`Cc1ccc2[nH]c([S+]([O-])Cc3cccc(N)n3)nc2c1` (stereo not shown) [Example 89, 6-[[(5-Methyl-1H-benzimidazol-2-yl)-sulfinyl]methyl]-2-pyridinamine]: the IC50 amounted to 1.68 µM. Take `COc1cc2nc([S+]([O-])Cc3cccc(N)n3)[nH]c2cc1OC` (stereo not shown) [Example 99, 6-[[(5,6-Dimethoxy-1H-benzimidazol-2-yl)-sulfinyl]methyl]-2-pyridinamine ¼ hydrate]: the IC50 was determined as 23.7 µM. `Nc1cccc(C[S+]([O-])c2nc3cc(CO)ccc3[nH]2)n1` (stereo not shown) [Example 105, 6-[[[5-(Hydroxymethyl)-1H-benzimidazol-2-yl]sulfinyl]methyl]-2-pyridinamine ¼ hydrate]: the IC50 amounted to 9.5 µM. Still for that read-out and setting: the value for `COc1cccc(C[S+]([O-])c2nc3cc(C(F)(F)F)ccc3[nH]2)c1N` (stereo not shown) [Example 67] was 8.5 µM; that for `Cc1cc(N)c(C[S+]([O-])c2nc3ccccc3[nH]2)c(C)c1C` (stereo not shown) [Example 77, 2-[(1H-Benzimidazol-2-ylsulfinyl)methyl]-3,4,5-trimethylbenzenamine hemihydrate] was 16 µM. Still for that read-out and setting: the value for `Cc1ccc2[nH]c([S+]([O-])Cc3ccc(C)c(C)c3N)nc2c1` (stereo not shown) [Example 63, 2-[[(5-Methyl-1H-benzimidazol-2-yl)sulfinyl]-methyl]-5,6-dimethylbenzenamine hemihydrate] was 0.71 µM; that for `Cc1cccc2[nH]c([S+]([O-])Cc3cccc(N)n3)nc12` (stereo not shown) [Example 87, 6-[[(4-Methyl-1H-benzimidazol-2-yl)-sulfinyl]methyl]-2-pyridinamine] was 2.2 µM; that for `Cc1cc(C)c2nc([S+]([O-])Cc3cccc(N)n3)[nH]c2c1` (stereo not shown) [Example 103, 6-[[(4,6-Dimethyl-1H-benzimidazol-2-yl)-sulfinyl]methyl]-2-pyridinamine] was 1.8 µM. On the same count and under the same terms, the value for `CC(C)(C)CNc1cccc(C[S+]([O-])c2nc3ccccc3[nH]2)n1` (stereo not shown) [Example 107, 6-[(1H-Benzimidazol-2-ylsulfinyl)methyl]-N-(2,2-dimethylpropyl)-2-pyridinamine ¼ hydrate] was 9.1 µM.

Test system in a further series: not given
Assay: not given
Conditions: not given
A word on the melting point: it is the temperature of the solid-liquid transition. `Cc1cc(C)c(N)c(CSc2nc3ccccc3[nH]2)c1` [Example 29, 2-[(1H-Benzimidazol-2-ylthio)methyl]-4,6-dimethylbenzenamine] returned a melting point of 139 to 141 °C. On to `COc1ccc2[nH]c(SCc3cccc(C)c3N)nc2c1` [Example 35, 2-[[(5-methoxy-1H-benzimidazol-2-yl)thio]methyl]-6-methylbenzenamine], for which the melting point was in the range of 132 to 134 °C. `Cc1cccc2[nH]c(SCc3ccccc3N)nc12` [Example 7, 2-[[(4-Methyl-1H-benzimidazol-2-yl)thio]methyl]benzenamine] returned a melting point of 125 to 127 °C. On the same count and under the same terms, the value for `Cc1ccc(C[S+]([O-])c2nc3ccccc3[nH]2)c(N)c1C` (stereo not shown) (hydrate or solvate) [Example 53, 2-[(1H-Benzimidazol-2-ylsulfinyl)methyl]-5,6-dimethylbenzenamine ¼ hydrate] was 160 °C (dec.); that for `COc1cc(Cl)c(C)c(CSc2nc3ccccc3[nH]2)c1N` [Example 58, 2-[(1H-Benzimidazol-2-ylthio)methyl]-4-chloro-6-methoxy-3-methylbenzenamine] was ~ 100 °C; that for `CNc1ccccc1CSc1nc2ccccc2[nH]1` [Example 31, 2-[(1H-Benzimidazol-2-ylthio)methyl]-N-methylbenzenamine] was 109 to 112 °C.

The molecule `Nc1cc(Cl)ccc1CSc1nc2ccccc2[nH]1` [Example 17, 2-[(1H-Benzimidazol-2-ylthio)methyl]-5-chlorobenzenamine] gave a melting point of 158 to 160.5 °C.

Turning to `Cc1ccc(C)c(C[S+]([O-])c2nc3ccccc3[nH]2)c1N.O` (stereo not shown) (hydrate or solvate) [Example 55, 2-[(1H-Benzimidazol-2-ylsulfinyl)methyl]-3,6-dimethylbenzenamine monohydrate], the melting point lay in the range of 144 to 145 °C. Still for that read-out and setting: the value for `CCOC(=O)c1ccc(N)c(CSc2nc3cc(OC)ccc3[nH]2)c1` [Example 72, Ethyl 4-amino-3-[[(5-methoxy-1H-benzimidazol-2-yl)thio]methyl]benzoate] was 140 to 146 °C; that for `CCOC(=O)c1ccc(N)c(CSc2nc3ccccc3[nH]2)c1` [Example 70, Ethyl 4-amino-3-[(1H-benzimidazol-2-ylthio)methyl]benzoate] was 174 to 176 °C. Still for that read-out and setting: the value for `Cc1cccc(CSc2nc3ccccc3[nH]2)c1N` [Example 27, 2-[(1H-Benzimidazol-2-ylthio)methyl]-6-methylbenzenamine] was 130 to 134 °C; that for `COc1ccc(N)c(CSc2nc3ccccc3[nH]2)c1.Cl.Cl` was 206 to 208 °C; that for `COc1ccc2[nH]c(SCc3ccccc3N)nc2c1` [Example 11, 2-[[(5-methoxy-1H-benzimidazol-2-yl)thio]methyl]benzenamine] was 140 to 142 °C. Turning to `CNc1ccccc1C[S+]([O-])c1nc2ccccc2[nH]1.O` (stereo not shown) (hydrate or solvate) [Example 32, 2-[(1H-Benzimidazol-2-ylsulfinyl)methyl]-N-methylbenzenamine monohydrate], the melting point was 117 to 120 °C. Same read-out and setting: the value for `Nc1ccc(C(F)(F)F)cc1CSc1nc2ccccc2[nH]1` [Example 48, 2-[(1H-Benzimidazol-2-ylthio)methyl]-4-(trifluoromethyl)benzenamine] was 130 to 137 °C; that for `Cc1cc2nc([S+]([O-])Cc3ccccc3N)[nH]c2cc1C` (stereo not shown) (hydrate or solvate) [Example 10, 2-[[(5,6-Dimethyl-1H-benzimidazol-2-yl)sulfinyl]methyl]benzenamine ¼ hydrate] was 179 to 181 °C. The same measure, in the same setting: the value for `Cc1cccc(N)c1C[S+]([O-])c1nc2ccccc2[nH]1` (stereo not shown) (hydrate or solvate) [Example 24, 2-[(1H-Benzimidazol-2-ylsulfinyl)methyl]-3-methylbenzenamine ¼ hydrate] was 152 to 153 °C. `Nc1ccc(Cl)cc1CSc1nc2ccccc2[nH]1` [Example 15, 2-[(1H-Benzimidazol-2-ylthio)methyl]-4-chlorobenzenamine] returned a melting point of 114 to 118 °C. Same read-out and setting: the value for `CCOc1ccc2[nH]c(SCc3ccccc3N)nc2c1.O` (hydrate or solvate) was 87 to 89 °C.
